# Results published in paper PMC11317875 (Chemical Science, 2024).
# Tested on: Wild-type Mycobacterium bovis BCG
# Experiment: not given
# Type: cell-based
# Conditions: 100 μM probe
row,SMILES,accumulation in cytosolic extracts
1,"OC[C@H]1O[C@H](O[C@H]2O[C@H](CO)[C@@H](O)[C@H](O)[C@H]2F)[C@H](O)[C@@H](O)[C@@H]1O [2F-Tre, 2-deoxy-2-fluoro-trehalose]",accumulate

# Tested on: Mycobacterium tuberculosis
# Experiment: Time dependent F-Tre uptake, HPAEC-PAD of cytosolic extracts
# Type: cell-based
# Conditions: 100 μM probe, cytosolic extracts
# Protocol: lyophilised, resuspended in 1 mL 18 MΩ H2O and filtered through a 10-kDa molecular weight cut-off centrifuge filter (Amicon) and the filtrate analysed. HPAEC-PAD was performed on a Dionex ICS5000+ system with a CarboPac PA-20 analytical column (3 mm x 150 mm) and PA-20 guard column (3 mm x 30 mm) kept at 20 °C. Pulsed amperometry with standard quadrupole waveform was used for detection. The system was equipped with an autosampler that was set up to inject 10 μL sample volumes. Multistep gradient […]
# Chromeleon 7 software (Dionex) was used for data processing.
# Table S11: High performance anion exchange chromatography KOH elution gradient for F-Tre analysis Time (min) KOH conc. (mM) Flow rate (mL/min)
# To quantify uptake, the peak area of 2F-Tre, 3F-Tre and 6F-Tre standards at varying concentrations were measured (Chromeleon 7 software). The peak area was plotted against concentration and simple linear regression was plotted. To determine the concentration of F-Tre analogues in cytosolic samples the area of the peaks of interest was measured (Chromeleon 7 software) and the concentration determined from the calibration […]
# Time dependent F-Tre uptake
# M. tuberculosis was grown to an OD600 of 0.8, then 2F-Tre, 3F-Tre, 4F-Tre or 6F-Tre were added to a final concentration of 100 µM. Controls with the equivalent volume of water or equivalent concentration of trehalose were also prepared. 5 mL aliquots were taken at T=0, 0.5, 1, 1.5, 2, 3, 4, 6, 8 h and the cells were harvested by centrifugation (2,916 x g, 5 min, 22 ° C) and washed (5 mL PBST) three times. The pellets were then resuspended in 1 mL H2O and lysed by mechanical disruption using 0.1 mm zirconia/silica beads (BioSpec Products) on a FastPrep (MP Biomedicals) ribolyser (4 x 45 s cycles with 90 s on ice in between).
# Samples were then centrifuged (16,200 x g, 10 min, 22 °C) and the supernatant collected, lyophilised, resuspended in 1 mL 18 MΩ H2O and filtered through a 10-kDa molecular weight cut-off centrifuge filter (Amicon). The filtrate was analysed by HPAEC-PAD and quantified as described above.
row,SMILES,accumulation rate [µM/h]
1,"OC[C@H]1O[C@H](O[C@H]2O[C@H](CO)[C@@H](O)[C@H](O)[C@H]2F)[C@H](O)[C@@H](O)[C@@H]1O [2F-Tre, 2-deoxy-2-fluoro-trehalose]",0.80

# Same assay, conditions: Time 0 h, 100 µM probe
row,SMILES,Mtb cytosolic concentration [µM]
1,"OC[C@H]1O[C@H](O[C@H]2O[C@H](CO)[C@@H](O)[C@H](O)[C@H]2F)[C@H](O)[C@@H](O)[C@@H]1O [2F-Tre, 2-deoxy-2-fluoro-trehalose]",0 ± 0

# Same assay, conditions: Time 0.5 h, 100 µM probe
row,SMILES,Mtb cytosolic concentration [µM]
1,"OC[C@H]1O[C@H](O[C@H]2O[C@H](CO)[C@@H](O)[C@H](O)[C@H]2F)[C@H](O)[C@@H](O)[C@@H]1O [2F-Tre, 2-deoxy-2-fluoro-trehalose]",636 ± 33

# Same assay, conditions: Time 1 h, 100 µM probe
row,SMILES,Mtb cytosolic concentration [µM]
1,"OC[C@H]1O[C@H](O[C@H]2O[C@H](CO)[C@@H](O)[C@H](O)[C@H]2F)[C@H](O)[C@@H](O)[C@@H]1O [2F-Tre, 2-deoxy-2-fluoro-trehalose]",838 ± 52

# Same assay, conditions: Time 1.5 h, 100 µM probe
row,SMILES,Mtb cytosolic concentration [µM]
1,"OC[C@H]1O[C@H](O[C@H]2O[C@H](CO)[C@@H](O)[C@H](O)[C@H]2F)[C@H](O)[C@@H](O)[C@@H]1O [2F-Tre, 2-deoxy-2-fluoro-trehalose]",1144 ± 250

# Same assay, conditions: Time 2 h, 100 µM probe
row,SMILES,Mtb cytosolic concentration [µM]
1,"OC[C@H]1O[C@H](O[C@H]2O[C@H](CO)[C@@H](O)[C@H](O)[C@H]2F)[C@H](O)[C@@H](O)[C@@H]1O [2F-Tre, 2-deoxy-2-fluoro-trehalose]",1717 ± 151

# Same assay, conditions: Time 4 h, 100 µM probe
row,SMILES,Mtb cytosolic concentration [µM]
1,"OC[C@H]1O[C@H](O[C@H]2O[C@H](CO)[C@@H](O)[C@H](O)[C@H]2F)[C@H](O)[C@@H](O)[C@@H]1O [2F-Tre, 2-deoxy-2-fluoro-trehalose]",2917 ± 105

# Same assay, conditions: Time 6 h, 100 µM probe
row,SMILES,Mtb cytosolic concentration [µM]
1,"OC[C@H]1O[C@H](O[C@H]2O[C@H](CO)[C@@H](O)[C@H](O)[C@H]2F)[C@H](O)[C@@H](O)[C@@H]1O [2F-Tre, 2-deoxy-2-fluoro-trehalose]",4597 ± 236

# Same assay, conditions: Time 8 h, 100 µM probe
row,SMILES,Mtb cytosolic concentration [µM]
1,"OC[C@H]1O[C@H](O[C@H]2O[C@H](CO)[C@@H](O)[C@H](O)[C@H]2F)[C@H](O)[C@@H](O)[C@@H]1O [2F-Tre, 2-deoxy-2-fluoro-trehalose]",6639 ± 337

# Same assay, conditions: up to the 8 hour timepoint
row,SMILES,saturation of uptake
1,"OC[C@H]1O[C@H](O[C@H]2O[C@H](CO)[C@@H](O)[C@H](O)[C@H]2F)[C@H](O)[C@@H](O)[C@@H]1O [2F-Tre, 2-deoxy-2-fluoro-trehalose]",no saturation of uptake

# Tested on: Mtb
# Experiment: not given
# Type: cell-based, Mycobacterium tuberculosis
# Conditions: 100 μM probe
row,SMILES,new spots in the lipid extracts (TLC)
1,"OC[C@H]1O[C@H](O[C@H]2O[C@H](CO)[C@@H](O)[C@H](O)[C@H]2F)[C@H](O)[C@@H](O)[C@@H]1O [2F-Tre, 2-deoxy-2-fluoro-trehalose]",new spots

# Same assay, conditions: 100 μM probe; Fig. 8 shows Mtb and M. bovis BCG
SMILES,additional band in the TDM region (TLC),additional lower polarity bands than TMM (TLC)
"OC[C@H]1O[C@H](O[C@H]2O[C@H](CO)[C@@H](O)[C@H](O)[C@H]2F)[C@H](O)[C@@H](O)[C@@H]1O [2F-Tre, 2-deoxy-2-fluoro-trehalose]",one additional lower polarity TDM band,Two additional lower polarity bands than TMM

# Tested on: Mycobacterium tuberculosis
# Experiment: Ion chromatography of hydrolysed lipid extracts of F-Tre labelled Mtb
# Type: cell-based
# Conditions: 100 µM probe, HPAEC-PAD
row,SMILES,detection in hydrolysed lipid extracts
1,"OC[C@H]1O[C@H](O[C@H]2O[C@H](CO)[C@@H](O)[C@H](O)[C@H]2F)[C@H](O)[C@@H](O)[C@@H]1O [2F-Tre, 2-deoxy-2-fluoro-trehalose]",detected

# Same assay, conditions: Mtb + F-Tre (100 µM)
row,SMILES,Peak area of F-Tre peak in hydrolysed lipid extracts [nC*min]
1,"OC[C@H]1O[C@H](O[C@H]2O[C@H](CO)[C@@H](O)[C@H](O)[C@H]2F)[C@H](O)[C@@H](O)[C@@H]1O [2F-Tre, 2-deoxy-2-fluoro-trehalose]",0.662

# Target: LpqY (Mycolicibacterium thermoresistibile, UniProt G7CES0)
# Sequence (G7CES0 29-471): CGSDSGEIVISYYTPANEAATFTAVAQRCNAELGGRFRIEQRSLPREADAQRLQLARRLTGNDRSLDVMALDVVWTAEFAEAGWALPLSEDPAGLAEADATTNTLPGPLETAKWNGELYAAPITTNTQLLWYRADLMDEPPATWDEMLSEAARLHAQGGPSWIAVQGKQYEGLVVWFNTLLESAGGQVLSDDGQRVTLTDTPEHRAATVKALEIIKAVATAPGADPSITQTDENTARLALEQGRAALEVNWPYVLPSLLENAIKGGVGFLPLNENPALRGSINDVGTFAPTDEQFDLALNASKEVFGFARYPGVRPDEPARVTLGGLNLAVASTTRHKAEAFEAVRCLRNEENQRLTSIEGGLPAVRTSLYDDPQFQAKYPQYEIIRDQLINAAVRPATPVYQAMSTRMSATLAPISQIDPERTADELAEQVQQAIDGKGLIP
# Experiment: Microscale thermophoresis (MST) binding to LpqY
# Conditions: not given
row,SMILES,Kd [µM]
1,"OC[C@H]1O[C@H](O[C@H]2O[C@H](CO)[C@@H](O)[C@H](O)[C@H]2F)[C@H](O)[C@@H](O)[C@@H]1O [2F-Tre, 2-deoxy-2-fluoro-trehalose]",770 ± 23.2

# Same assay, conditions: compared with 3F-Tre, 6F-Tre and unmodified trehalose
row,SMILES,fold weaker binding to LpqY [fold]
1,"OC[C@H]1O[C@H](O[C@H]2O[C@H](CO)[C@@H](O)[C@H](O)[C@H]2F)[C@H](O)[C@@H](O)[C@@H]1O [2F-Tre, 2-deoxy-2-fluoro-trehalose]",~8

# Tested on: Mycobacterium tuberculosis
# Experiment: F-Tre uptake at a single time point, HPAEC-PAD of cytosolic extracts
# Type: cell-based
# Conditions: 0-200 μM probe, ion chromatography of cytosolic extracts
row,SMILES,uptake / accumulation in Mtb cells
1,"OC[C@H]1O[C@H](O[C@H]2O[C@H](CO)[C@@H](O)[C@H](O)[C@H]2F)[C@H](O)[C@@H](O)[C@@H]1O [2F-Tre, 2-deoxy-2-fluoro-trehalose]",significant dose-dependent increase in the accumulation

# Same assay, conditions: Mtb + 25 µM F-Tre, HPAEC trace
row,SMILES,Peak area of F-Tre peak [nC*min]
1,"OC[C@H]1O[C@H](O[C@H]2O[C@H](CO)[C@@H](O)[C@H](O)[C@H]2F)[C@H](O)[C@@H](O)[C@@H]1O [2F-Tre, 2-deoxy-2-fluoro-trehalose]",0.096

# Same assay, conditions: Mtb + 50 µM F-Tre, HPAEC trace
row,SMILES,Peak area of F-Tre peak [nC*min]
1,"OC[C@H]1O[C@H](O[C@H]2O[C@H](CO)[C@@H](O)[C@H](O)[C@H]2F)[C@H](O)[C@@H](O)[C@@H]1O [2F-Tre, 2-deoxy-2-fluoro-trehalose]",0.206

# Same assay, conditions: Mtb + 100 µM F-Tre, HPAEC trace
row,SMILES,Peak area of F-Tre peak [nC*min]
1,"OC[C@H]1O[C@H](O[C@H]2O[C@H](CO)[C@@H](O)[C@H](O)[C@H]2F)[C@H](O)[C@@H](O)[C@@H]1O [2F-Tre, 2-deoxy-2-fluoro-trehalose]",0.362

# Same assay, conditions: Mtb + 200 µM F-Tre, HPAEC trace
row,SMILES,Peak area of F-Tre peak [nC*min]
1,"OC[C@H]1O[C@H](O[C@H]2O[C@H](CO)[C@@H](O)[C@H](O)[C@H]2F)[C@H](O)[C@@H](O)[C@@H]1O [2F-Tre, 2-deoxy-2-fluoro-trehalose]",1.328

# Tested on: M. bovis BCG
# Experiment: not given
# Type: cell-based, Mycobacterium bovis BCG
# Conditions: 100 μM probe
row,SMILES,new spots in the lipid extracts (TLC)
1,"OC[C@H]1O[C@H](O[C@H]2O[C@H](CO)[C@@H](O)[C@H](O)[C@H]2F)[C@H](O)[C@@H](O)[C@@H]1O [2F-Tre, 2-deoxy-2-fluoro-trehalose]",new spots
